Data taken from the supplement of paper PMC10307832.

How the values were obtained:
Test in all cases: relative viability (nuclei count vs DMSO), 5 days (fraction); higher = more cells survive
BAY61-3606 + Lapatinib = compound: COC1=C(C=C(C=C1)C2=CC3=NC=CN3C(=N2)NC4=C(C=CC=N4)C(=O)N)OC [BAY61-3606] + CS(=O)(=O)CCNCc1ccc(-c2ccc3ncnc(Nc4ccc(OCc5cccc(F)c5)c(Cl)c4)c3c2)o1 [Lapatinib] (partner 2 µM)
Outline: (§1)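 For relative viability, nuclei counts in treated wells were divided by those in vehicle wells. Lung cancer cell lines had been pin-tool dosed in 1536-well plates the day after seeding and cultured for 5 days, then fixed and stained in one step (final 0.05% Triton X-100, 1% formaldehyde, 1 ug/ml Hoechst) and imaged at 4×. Doses were one drug alone or a fixed anchor-drug dose plus five library-drug doses (not always all listed) in √10 steps, and values are duplicate-plate medians.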

BAY61-3606 + Olaparib = compound: COC1=C(C=C(C=C1)C2=CC3=NC=CN3C(=N2)NC4=C(C=CC=N4)C(=O)N)OC [BAY61-3606] + O=C(c1cc(Cc2n[nH]c(=O)c3ccccc23)ccc1F)N1CCN(C(=O)C2CC2)CC1 [Olaparib] (partner 8 µM)
Outline: as §1

Doxorubicin + Decitabine = compound: COc1cccc2c1C(=O)c1c(O)c3c(c(O)c1C2=O)C[C@@](O)(C(=O)CO)C[C@@H]3O[C@H]1C[C@H](N)[C@H](O)[C@H](C)O1 [Doxorubicin] + Nc1ncn([C@H]2C[C@H](O)[C@@H](CO)O2)c(=O)n1 [Decitabine] (partner 2 µM)
Outline: as §1

Doxorubicin + Tozasertib = compound: COc1cccc2c1C(=O)c1c(O)c3c(c(O)c1C2=O)C[C@@](O)(C(=O)CO)C[C@@H]3O[C@H]1C[C@H](N)[C@H](O)[C@H](C)O1 [Doxorubicin] + Cc1cc(Nc2cc(N3CCN(C)CC3)nc(Sc3ccc(NC(=O)C4CC4)cc3)n2)n[nH]1 [Tozasertib] (partner 0.1 µM)
Outline: as §1

Cell Line | relative viability (BAY61-3606 + Lapatinib; first compound 0.02 µM) | relative viability (BAY61-3606 + Lapatinib; first compound 0.06325 µM) | relative viability (BAY61-3606 + Lapatinib; first compound 0.2 µM) | relative viability (BAY61-3606 + Lapatinib; first compound 0.6325 µM) | relative viability (BAY61-3606 + Lapatinib; first compound 2 µM) | relative viability (BAY61-3606 + Olaparib; first compound 0.02 µM) | relative viability (BAY61-3606 + Olaparib; first compound 0.06325 µM) | relative viability (BAY61-3606 + Olaparib; first compound 0.2 µM) | relative viability (BAY61-3606 + Olaparib; first compound 0.6325 µM) | relative viability (BAY61-3606 + Olaparib; first compound 2 µM) | relative viability (Doxorubicin + Decitabine; first compound 0.001 µM) | relative viability (Doxorubicin + Decitabine; first compound 0.003162 µM) | relative viability (Doxorubicin + Decitabine; first compound 0.01 µM) | relative viability (Doxorubicin + Decitabine; first compound 0.03162 µM) | relative viability (Doxorubicin + Decitabine; first compound 0.1 µM) | relative viability (Doxorubicin + Tozasertib; first compound 0.001 µM) | relative viability (Doxorubicin + Tozasertib; first compound 0.003162 µM) | relative viability (Doxorubicin + Tozasertib; first compound 0.01 µM) | relative viability (Doxorubicin + Tozasertib; first compound 0.03162 µM) | relative viability (Doxorubicin + Tozasertib; first compound 0.1 µM)
PC-3 [JPC-3] | 0.468 | 0.482 | 0.478 | 0.436 | 0.471 | 1.25 | 1.16 | 1.17 | 1.17 | 1.06 | 0.765 | 0.803 | 0.907 | 0.829 | 0.732 | 0.887 | 0.888 | 0.915 | 0.866 | 0.856
PC-14 | 0.367 | 0.278 | 0.357 | 0.339 | 0.377 |  | 0.284 | 0.212 | 0.235 | 0.204 | 0.246 | 0.228 | 0.238 | 0.0977 | 0.0677 | 0.598 | 0.573 | 0.599 | 0.59 | 0.487
RERF-LC-KJ | 0.935 | 0.741 | 0.859 | 0.814 | 0.709 | 0.878 | 0.899 | 1.07 | 0.872 | 0.779 | 0.78 | 0.671 | 0.598 | 0.334 | 0.282 | 0.538 | 0.406 | 0.398 | 0.233 | 0.233
SK-LU-1 | 0.953 | 0.81 | 0.885 | 0.862 | 0.532 | 0.599 | 0.458 | 0.646 | 0.429 | 0.355 | 0.68 | 0.745 | 0.554 | 0.445 | 0.473 | 0.318 | 0.326 | 0.288 | 0.173 | 0.179
SK-MES-1 | 0.594 | 0.483 | 0.469 | 0.424 | 0.42 | 0.679 | 0.786 | 0.606 | 0.688 | 0.31 | 0.353 | 0.328 | 0.261 | 0.196 | 0.194 | 0.856 | 0.867 | 0.583 | 0.211 | 0.162
SW 1573 | 1.18 | 1.01 | 1.08 | 1.11 | 0.858 | 0.553 | 0.455 | 0.424 | 0.542 | 0.259 | 0.566 | 0.417 | 0.166 | 0.129 | 0.098 | 0.185 | 0.144 | 0.148 | 0.103 | 0.0879
